The target in assay [1] is T1, CaV1.2 channel (α1C subunit) (Rattus norvegicus, UniProt P22002). Briefly: whole-cell patch clamp of ICa1.[…]. The settings on record: read-out: % inhibition at 100 μM. It counts as cell-based. On the technique in general: The patch-clamp technique gives a direct electrical read-out from membranes.
For assay [2], the target named is T1, CaV1.2 channel (α1C subunit). The experiment in a line: whole-cell patch clamp. The format is cell-based. Particulars: read-out: % of control at 100 nM.

Consider `O=C(c1ccc(F)cc1)C1CCN(CCn2c(=O)[nH]c3ccccc3c2=O)CC1` [ketanserin, 3-[2-[4-(4-fluorobenzoyl)piperidin-1-yl]ethyl]-1H-quinazoline-2,4-dione], for which the inhibition at 100 µM in assay [1] is around 50%.

Regarding `COC(=O)C1=C(C)NC(C)=C([N+](=O)[O-])[C@H]1c1ccccc1C(F)(F)F` [Bay K 8644, (S)-(-)-methyl-1,4-dihydro-2,6-dimethyl-3-nitro-4-(2-trifluoromethylphenyl)pyridine-5-carboxylate], the remaining activity at 0.1 µM in assay [2] amounted to 524%.

The inhibition is the share of the control response that was lost under treatment.

The record behind these values is paper PMC7608335 (Acta Pharmacologica Sinica, 2020).
